{"source": "patent US20240279236A1", "about": "“COMPOUNDS AND METHODS OF TREATING TUBERCULOSIS” (Fimbrion Therapeutics, Inc., priority 2021, published 2024)"}
{"test_system": "WT Mtb Erdman strain", "experiment": "Microplate Alamar Blue Assay (MABA), Mtb growth inhibition", "type": "cell-based, Mycobacterium tuberculosis", "settings": "Middlebrook 7H9 media, 7 days at 37° C. in 5% CO2", "units": {"IC50": "µM"}}
{"smiles": "Cc1cc2c(NCCCc3ccc(-c4ccc(OC(F)(F)F)cc4)cc3)nc(N(C)C)nc2s1", "note": "[Example 535, N2,N2,6-trimethyl-N4-(3-(4′-(trifluoromethoxy)-[1,1′-biphenyl]-4-yl)propyl)thieno[2,3-d]pyrimidine-2,4-diamine]", "IC50": 0.004}
{"test_system": "WT Mtb Erdman strain", "experiment": "Microplate Alamar Blue Assay (MABA), Mtb growth inhibition", "type": "cell-based, Mycobacterium tuberculosis", "settings": "Mycobacterium tuberculosis, ERDMAN, 168 h, Middlebrook 7H9 media, 7 days at 37° C. in 5% CO2", "units": {"IC50": "µM"}}
{"smiles": "Cc1cc2c(NCCCc3ccccc3)nc(NCc3ccco3)nc2s1", "note": "[Example 529, N2-(furan-2-ylmethyl)-6-methyl-N4-(3-phenylpropyl)thieno[2,3-d]pyrimidine-2,4-diamine]", "IC50": "> 10"}
{"smiles": "Cc1cc2c(NCCCc3ccc(-c4ccc(Cl)cc4)cc3)nc(N(C)C)nc2s1", "note": "[Example 531, N4-(3-(4′-chloro-[1,1′-biphenyl]-4-yl)propyl)-N2,N2,6-trimethylthieno[2,3-d]pyrimidine-2,4-diamine]", "IC50": 0.012}
{"smiles": "CNc1nc(NCCCc2ccc(-c3ccc(OC(F)(F)F)cc3)cc2)c2cc(C)sc2n1", "note": "[Example 532, N2,6-dimethyl-N4-(3-(4′-(trifluoromethoxy)-[1,1′-biphenyl]-4-yl)propyl)thieno[2,3-d]pyrimidine-2,4-diamine]", "IC50": 0.049}
{"smiles": "Cc1cc2c(NCCCc3ccc(-c4ccc(OC(F)(F)F)cc4)cc3)nc(N3CCC3)nc2s1", "note": "[Example 533, 2-(azetidin-1-yl)-6-methyl-N-(3-(4′-(trifluoromethoxy)-[1,1′-biphenyl]-4-yl)propyl)thieno[2,3-d]pyrimidin-4-amine]", "IC50": 0.93}
{"smiles": "Cc1cc2c(NCCCc3ccc(-c4ccc(OC(F)(F)F)cc4)cc3)nc(N3CCC(F)(F)C3)nc2s1", "note": "[Example 534, 2-(3,3-difluoropyrrolidin-1-yl)-6-methyl-N-(3-(4′-(trifluoromethoxy)-[1,1′-biphenyl]-4-yl)propyl)thieno[2,3-d]pyrimidin-4-amine]", "IC50": 0.086}
{"smiles": "CN(C)c1nc(NCCCc2ccc(-c3ccc(OC(F)(F)F)cc3)cc2)c2ncsc2n1", "note": "[Example 536, N5,N5-dimethyl-N7-(3-(4′-(trifluoromethoxy)-[1,1′-biphenyl]-4-yl)propyl)thiazolo[5,4-d]pyrimidine-5,7-diamine]", "IC50": 0.088}
{"smiles": "Cc1cc2c(NCCCc3ccc(-c4ccc(OC(F)(F)F)cc4)cc3)nc(N)nc2s1", "note": "[Example 537, 6-methyl-N4-(3-(4′-(trifluoromethoxy)-[1,1′-biphenyl]-4-yl)propyl)thieno[2,3-d]pyrimidine-2,4-diamine]", "IC50": 0.13}
{"smiles": "CCN(C)c1nc(NCCCc2ccc(-c3ccc(OC(F)(F)F)cc3)cc2)c2cc(C)sc2n1", "note": "[Example 538, N2-ethyl-N2,6-dimethyl-N4-(3-(4′-(trifluoromethoxy)-[1,1′-biphenyl]-4-yl)propyl)thieno[2,3-d]pyrimidine-2,4-diamine]", "IC50": 0.1}
{"smiles": "CNc1nc(NCCCc2ccc(-c3ccc(N(C)C)cc3)cc2)c2cc(C)sc2n1", "note": "[Example 539, N4-(3-(4′-(dimethylamino)-[1,1′-biphenyl]-4-yl)propyl)-N2,6-dimethylthieno[2,3-d]pyrimidine-2,4-diamine]", "IC50": 0.068}
{"smiles": "CCOc1nc(NCCCc2ccccc2)c2ccsc2n1", "note": "[Example 542, 2-ethoxy-N-(3-phenylpropyl)thieno[2,3-d]pyrimidin-4-amine]", "IC50": 0.15}
{"smiles": "CCOc1nc(NCCCc2ccccc2)c2cc(C)sc2n1", "note": "[Example 543, 2-ethoxy-6-methyl-N-(3-phenylpropyl)thieno[2,3-d]pyrimidin-4-amine]", "IC50": 0.13}
{"smiles": "COc1nc(NCCCc2ccc(-c3ccc(OC(F)(F)F)cc3)cc2)c2cc(C)sc2n1", "note": "[Example 545, 2-methoxy-6-methyl-N-(3-(4′-(trifluoromethoxy)-[1,1′-biphenyl]-4-yl)propyl)thieno[2,3-d]pyrimidin-4-amine]", "IC50": 0.01}
{"smiles": "CCOc1nc(NCCCc2ccc(-c3ccc(OC(F)(F)F)cc3)cc2)c2cc(C)sc2n1", "note": "[Example 546, 2-ethoxy-6-methyl-N-(3-(4′-(trifluoromethoxy)-[1,1′-biphenyl]-4-yl)propyl)thieno[2,3-d]pyrimidin-4-amine]", "IC50": 0.015}
{"smiles": "COc1nc(NCCCc2ccc(-c3ccc(OC(F)(F)F)cc3)cc2)c2nc(C)sc2n1", "note": "[Example 547, 5-methoxy-2-methyl-N-(3-[4′-(trifluoromethoxy)-[1,1′-biphenyl]-4-yl]propyl)-[1,3]thiazolo[5,4-d]pyrimidin-7-amine]", "IC50": 0.033}
{"smiles": "Cc1cc2c(NCCCc3ccc(-c4ccc([N+](=O)[O-])cc4)cc3)nc(N3CCCC3)nc2s1", "note": "[Example 549, 6-methyl-N-(3-(4′-nitro-[1,1′-biphenyl]-4-yl)propyl)-2-(pyrrolidin-1-yl)thieno[2,3-d]pyrimidin-4-amine]", "IC50": 0.029}
{"smiles": "Cc1cc2c(NCCCc3ccc(-c4ccc(F)nc4)cc3)nc(N(C)C)nc2s1", "note": "[Example 555, N4-(3-[4-(6-fluoropyridin-3-yl)phenyl]propyl)-N2,N2,6-trimethylthieno[2,3-d]pyrimidine-2,4-diamine]", "IC50": 0.029}
{"smiles": "Cc1cc2c(NCCCc3ccc(-c4ccc(F)cc4)cc3)nc(N(C)C)nc2s1", "note": "[Example 556, N4-(3-(4′-fluoro-[1,1′-biphenyl]-4-yl)propyl)-N2,N2,6-trimethylthieno[2,3-d]pyrimidine-2,4-diamine]", "IC50": "< 0.004"}
{"smiles": "Cc1cc2c(NCCCc3ccc(-c4ccc(C(F)(F)F)cn4)cc3)nc(N(C)C)nc2s1", "note": "[Example 557, N2,N2,6-trimethyl-N4-(3-(4-[5-(trifluoromethyl)pyridin-2-yl]phenyl)propyl)thieno[2,3-d]pyrimidine-2,4-diamine]", "IC50": "< 0.004"}
{"smiles": "Cc1cc2c(NCCCc3ccc(-c4ncc(C(F)(F)F)cn4)cc3)nc(N(C)C)nc2s1", "note": "[Example 558, N2,N2,6-trimethyl-N4-(3-(4-[5-(trifluoromethyl)pyrimidin-2-yl]phenyl)propyl)thieno[2,3-d]pyrimidine-2,4-diamine]", "IC50": "< 0.004"}
{"smiles": "Cc1cnc(-c2ccc(CCCNc3nc(N(C)C)nc4sc(C)cc34)cc2)cn1", "note": "[Example 559, N2,N2,6-trimethyl-N4-(3-[4-(5-methylpyrazin-2-yl)phenyl]propyl)thieno[2,3-d]pyrimidine-2,4-diamine]", "IC50": 0.011}
{"smiles": "CCOc1nc(NCCCc2ccc(-c3cnc(C(F)(F)F)cn3)cc2)c2cc(C)sc2n1", "note": "[Example 560, 2-ethoxy-6-methyl-N-(3-(4-[5-(trifluoromethyl)pyrazin-2-yl]phenyl)propyl)thieno[2,3-d]pyrimidin-4-amine]", "IC50": 0.05}
{"smiles": "COc1nc(NCCCc2ccc(-c3cnc(F)cn3)cc2)c2cc(C)sc2n1", "note": "[Example 561, N-(3-[4-(5-fluoropyrazin-2-yl)phenyl]propyl)-2-methoxy-6-methylthieno[2,3-d]pyrimidin-4-amine]", "IC50": 0.031}
{"smiles": "CCc1nc(NCCCc2c[nH]nn2)c2cc(C)sc2n1", "note": "[Example 562, N-(3-(1H-1,2,3-triazol-4-yl)propyl)-2-ethyl-6-methylthieno[2,3-d]pyrimidin-4-amine]", "IC50": "> 10"}
{"smiles": "CCc1nc(NCCCc2cn(-c3ccccc3)nn2)c2cc(C)sc2n1", "note": "[Example 563, 2-ethyl-6-methyl-N-(3-(1-phenyl-1H-1,2,3-triazol-4-yl)propyl)thieno[2,3-d]pyrimidin-4-amine]", "IC50": 4.7}
{"smiles": "CNC(=O)c1nc(NCCCc2ccc(OC(F)(F)F)cc2)c2cc(C)sc2n1", "note": "[Example 564, N,6-dimethyl-4-((3-(4-(trifluoromethoxy)phenyl)propyl)amino)thieno[2,3-d]pyrimidine-2-carboxamide]", "IC50": 1.2}
{"smiles": "Cc1cc2c(NCCCc3ccc(OC(F)(F)F)cc3)nc(C(=O)NC3CC3)nc2s1", "note": "[Example 565, N-cyclopropyl-6-methyl-4-((3-(4-(trifluoromethoxy)phenyl)propyl)amino)thieno[2,3-d]pyrimidine-2-carboxamide]", "IC50": 4.3}
{"smiles": "Cc1cc2c(N[C@H]3C[C@@H]3c3ccc(F)c(F)c3)nc(-c3ccc[nH]3)nc2s1", "note": "[Example 566, N-((1S,2R)-2-(3,4-difluorophenyl)cyclopropyl)-6-methyl-2-(1H-pyrrol-2-yl)thieno[2,3-d]pyrimidin-4-amine]", "IC50": 1.6}
{"smiles": "Cc1cc2c(NCCCc3ccc(-c4ccc(OC(F)(F)F)cc4)cc3)nc(-c3ccc[nH]3)nc2s1", "note": "[Example 567, 6-methyl-2-(1H-pyrrol-2-yl)-N-(3-(4′-(trifluoromethoxy)-[1,1′-biphenyl]-4-yl)propyl)thieno[2,3-d]pyrimidin-4-amine]", "IC50": "< 0.004"}
{"smiles": "Cc1cc2c(NCCCc3ccc(-c4ccc(OC(F)(F)F)cc4)cc3)nc(-c3cc[nH]c3)nc2s1", "note": "[Example 568, 6-methyl-2-(1H-pyrrol-3-yl)-N-(3-(4′-(trifluoromethoxy)-[1,1′-biphenyl]-4-yl)propyl)thieno[2,3-d]pyrimidin-4-amine]", "IC50": "> 1"}
{"smiles": "Cc1cc2c(NCCCc3ccc(-c4ccc([N+](=O)[O-])cc4)cc3)nc(-c3cc[nH]c3)nc2s1", "note": "[Example 569, 6-methyl-N-(3-(4′-nitro-[1,1′-biphenyl]-4-yl)propyl)-2-(1H-pyrrol-3-yl)thieno[2,3-d]pyrimidin-4-amine]", "IC50": 0.07}
{"smiles": "Cc1cc2c(NCCCc3ccc(-c4ccc(C(F)(F)F)cn4)cc3)nc(-c3cc[nH]c3)nc2s1", "note": "[Example 570, 6-methyl-2-(1H-pyrrol-3-yl)-N-(3-(4-(5-(trifluoromethyl)pyridin-2-yl)phenyl)propyl)thieno[2,3-d]pyrimidin-4-amine]", "IC50": 0.23}
{"smiles": "FC(F)(F)Oc1ccc(-c2ccc(CCCNc3nc(-c4ccc[nH]4)nc4sccc34)cc2)cc1", "note": "[Example 574, 2-(1H-pyrrol-2-yl)-N-(3-(4′-(trifluoromethoxy)-[1,1′-biphenyl]-4-yl)propyl)thieno[2,3-d]pyrimidin-4-amine]", "IC50": "> 0.52"}
{"smiles": "Cc1cc2c(NCCCc3ccc(-c4cnc(N5CCCC5)cn4)cc3)nc(N3CCCC3)nc2s1", "note": "[Example 575, 6-methyl-2-(pyrrolidin-1-yl)-N-(3-(4-(5-(pyrrolidin-1-yl)pyrazin-2-yl)phenyl)propyl)thieno[2,3-d]pyrimidin-4-amine]", "IC50": 0.091}
{"smiles": "CCc1nc(NC(=O)CCCc2ccccc2)c2cc(C)sc2n1", "note": "[Example 576, N-(2-ethyl-6-methylthieno[2,3-d]pyrimidin-4-yl)-4-phenylbutanamide]", "IC50": 3.4}
{"smiles": "Cc1cc2c(NC(=O)CCc3ccccc3)nc(-c3ccoc3)nc2s1", "note": "[Example 577, N-(2-(furan-3-yl)-6-methylthieno[2,3-d]pyrimidin-4-yl)-3-phenylpropanamide]", "IC50": 0.071}
